Measured values: patent US20080194585A1, “Fungicidal Pyrazine Derivatives” (priority 2005, published 2008)
Marks after values point to notes of the source that are not given here.

How the values were obtained:
[1] = test system: Erysiphe graminis f. sp. tritici; test: Test L: wheat powdery mildew, preventive spray on wheat seedlings
Phytophthora infestans = test: whole plant or invertebrate; format: in vivo
Botrytis cinerea = test: Test E: tomato botrytis, preventive spray on tomato seedlings
fusarium graminearium = test: Test I: wheat head scab, preventive spray on wheat seedlings
Description: (the causal agent of wheat head scab) and incubated in a saturated atmosphere at 20° C. for 72 h, and then moved to a growth chamber at 22° C. for 5 days, after which disease ratings were made.

Plasmopara viticola = test: Test D: grape downy mildew, spray after inoculation of grape seedlings; format: in vivo
Description: Upon removal, disease ratings were made. […] A dash (-) indicates no test results.

Septoria tritici = test: Test J: wheat leaf blotch, preventive spray on wheat seedlings; format: in vivo
Description: A dash (-) indicates no test results.

Sclerotinia sclerotiorum = test: Test C: cucumber white mold, preventive spray on cucumber seedlings
Pythium aphanidermatum = test: Test A: bluegrass pythium blight, preventive spray on bluegrass seedlings
Septoria nodorum = test: Test H: wheat glum blotch, preventive spray on wheat seedlings
Description: (the causal agent of wheat glum blotch) and incubated in a saturated atmosphere at 20° C. for 48 h, and then moved to a growth chamber at 22° C. for 5 days, after which disease ratings were made.

[2] = test system: Colletotrichum orbiculare; test: Test B: cucumber Colletotrichum anthracnose, preventive spray on cucumber seedlings
[3] = test system: Puccinia recondita f. sp. tritici; test: Test K: wheat leaf rust, preventive spray on wheat seedlings
Rhizoctonia oryzae = test: Test G: turf brown patch, preventive spray on creeping bent grass seedlings
Description: (the causal agent of turf brown patch) and incubated in a saturated atmosphere at 27° C. for 24 h, and then moved to a growth chamber at 27° C. for 5 days, after which disease ratings were made.

| SMILES | Test L disease control rating ([1]; 200 ppm) [%] | Test F disease control rating (Phytophthora infestans; 200 ppm) [%] | Test E disease control rating (Botrytis cinerea; 200 ppm) [%] | Test I disease control rating (fusarium graminearium; 200 ppm) [%] | Test D disease control rating (Plasmopara viticola; 200 ppm) [%] | Test C disease control rating (Sclerotinia sclerotiorum; 200 ppm) [%] | Test A disease control rating (Pythium aphanidermatum; 200 ppm) [%] | Test H disease control rating (Septoria nodorum; 200 ppm) [%] | Test G disease control rating (Rhizoctonia oryzae; 200 ppm) [%] | Test B disease control rating ([2]; 200 ppm) [%] | Test K disease control rating ([3]; 200 ppm) [%] | other results |
| --- | --- | --- | --- | --- | --- | --- | --- | --- | --- | --- | --- | --- |
| CC(C)Cn1c(-c2c(F)cccc2F)c(Cl)nc(-c2cn(C)cn2)c1=O [Compound 85, 5-Chloro-6-(2,6-difluorophenyl)-1-(2-methylpropyl)-3-(1-methyl-1H-imidazol-4-yl)-2(1H)-pyrazinone] |  |  |  |  |  |  |  |  |  |  |  | pest or weed control at 200 ppm ([1]; Blumeria graminis, in Triticum aestivum, 168 h, read-out: Test L disease control rating, 200 ppm): 0%; pest or weed control at 200 ppm (Phytophthora infestans; Phytophthora infestans, in Solanum lycopersicum, topical, 144 h, read-out: Test F disease control rating): 0%; pest or weed control at 200 ppm (Botrytis cinerea; Botrytis cinerea, in Solanum lycopersicum, topical, 72 h, read-out: Test E disease control rating): 100%; pest or weed control at 200 ppm (fusarium graminearium; Fusarium, in Triticum aestivum, topical, 192 h, read-out: Test I disease control rating, 200 ppm): 55%; pest or weed control at 200 ppm (Plasmopara viticola; Plasmopara viticola, 168 h, 200 ppm, read-out: Test D disease control rating): 0%; pest or weed control at 200 ppm (Septoria tritici; Zymoseptoria tritici, 528 h, 200 ppm, read-out: Test J disease control rating): 100%; pest or weed control at 200 ppm (Sclerotinia sclerotiorum; Sclerotinia sclerotiorum, in Cucumis sativus, 168 h, read-out: Test C disease control rating, 200 ppm): 95%; pest or weed control at 200 ppm (Pythium aphanidermatum; Pythium aphanidermatum, 120 h, read-out: Test A disease control rating): 0%; pest or weed control at 200 ppm (Septoria nodorum; Parastagonospora nodorum, in Triticum aestivum, topical, 168 h, read-out: Test H disease control rating, 200 ppm): 97%; pest or weed control at 200 ppm ([2]; Colletotrichum orbiculare, in Cucumis sativus, 144 h, read-out: Test B disease control rating, 200 ppm): 80%; pest or weed control at 200 ppm ([3]; Puccinia recondita, in Triticum aestivum, 192 h, read-out: Test K disease control rating): 99% |
| CC(C)Cn1c(-c2cccc(Cl)c2Cl)c(Cl)nc(-n2cccn2)c1=O [compound 41] | 0 | 0 | 100 | 0 | 8 | 98 | 0 | 100 | 47 | 68 | 83 |  |
| CC(C)Cn1c(-c2cc(Cl)cc(Cl)c2)c(Cl)nc(-n2cccn2)c1=O [compound 42] | 0 | 0 | 0 | 60 | 0 | 0 | 0 | 0 | 0 | 0 | 0 |  |
| CC(C)Cn1c(-c2ccc(Cl)cc2F)c(Cl)nc(-n2cncn2)c1=O [compound 44] |  |  |  |  |  |  |  |  |  |  |  | Test L disease control rating ([1]; 40 ppm (*)): 0* %; Test F disease control rating (Phytophthora infestans; 40 ppm (*)): 0* %; Test E disease control rating (Botrytis cinerea; 40 ppm (*)): 95* %; Test I disease control rating (fusarium graminearium; 40 ppm (*)): 0* %; Test D disease control rating (Plasmopara viticola; 40 ppm (*)): 0* %; Test C disease control rating (Sclerotinia sclerotiorum; 40 ppm (*)): 0* %; Test A disease control rating (Pythium aphanidermatum; 40 ppm (*)): 0* %; Test H disease control rating (Septoria nodorum; 40 ppm (*)): 0* %; Test G disease control rating (Rhizoctonia oryzae; 40 ppm (*)): 16* %; Test B disease control rating ([2]; 40 ppm (*)): 0* %; Test K disease control rating ([3]; 40 ppm (*)): 0* % |
| CC(C)Cn1c(-c2ccc(C(F)(F)F)cc2F)c(Cl)nc(-n2cccn2)c1=O [compound 46] | 0 | 0 | 0 | 78 | 0 | 0 | 0 | 0 | 0 | 0 | 0 |  |
| CC(C)=NNc1nc(Cl)c(-c2c(F)cccc2F)n(CC(C)C)c1=O [compound 48] | 0 | 0 | 83 | 0 | 0 | 0 | 0 | 0 | 16 | 0 | 80 |  |
| COc1nc(-n2cccn2)c(=O)n(C2CCCCC2)c1-c1c(F)cccc1F [compound 49] | 21 | 0 | 47 | 0 | 8 | 0 | 0 | 0 | 16 | 0 | 0 |  |
| CC(C)Cn1c(-c2ccc(F)cc2Cl)c(Cl)nc(-n2cncn2)c1=O [compound 51] | 63 | 0 | 100 | 94 | 0 | 99 | 0 | 100 | 31 | 98 | 100 |  |
| CC(C)Cn1c(-c2cccc(F)c2F)c(Cl)nc(-n2cncn2)c1=O [compound 52] | 21 | 0 | 98 | 0 | 0 | 90 | 0 | 98 | 16 | 0 | 74 |  |
| CC(C)Cn1c(-c2cc(F)ccc2F)c(Cl)nc(-n2cncn2)c1=O [compound 54] | 0 | 0 | 100 | 0 | 0 | 92 | 0 | 90 | 84 | 0 | 98 |  |
| CC(C)Cn1c(-c2c(F)ccc(F)c2F)c(Cl)nc(-n2cncn2)c1=O [compound 55] | 0 | 0 | 100 | 78 | 0 | 85 | 0 | 95 | 96 | 0 | 99 |  |
| CCC(C)Cn1c(-c2c(F)cccc2F)c(Cl)nc(-n2ccnc2C)c1=O (stereo not shown) [compound 69] |  | 0 |  | 0 | 0 | 0 | 0 |  |  |  |  | Test L disease control rating ([1]; 40 ppm (*)): 0* %; Test E disease control rating (Botrytis cinerea; 40 ppm (*)): 0* %; Test J disease control rating (Septoria tritici; 40 ppm (*)): 62* %; Test H disease control rating (Septoria nodorum; 40 ppm (*)): 0* %; Test G disease control rating (Rhizoctonia oryzae; 40 ppm (*)): 0* %; Test K disease control rating ([3]; 40 ppm (*)): 61* % |
| CC(C)Cn1c(-c2c(F)cccc2F)c(Cl)nc(-c2cncn2C)c1=O [compound 83] | 0 | 47 | 0 | 0 | 0 | 64 | 0 | 0 |  | 9 | 79 | Test J disease control rating (Septoria tritici; 200 ppm): 18% |
| CC(C)Cn1c(-c2ccc3ccccc3c2)c(Cl)nc(-n2cccn2)c1=O [compound 90] | 0 | 0 | 0 | 0 | 16 | 63 | 0 | 0 |  | 0 | 0 | Test J disease control rating (Septoria tritici; 200 ppm): 0% |
